Like-named read-outs stand apart in the source and are kept apart here.
Experiments:
[1] = system: Phytophthora infestans; format: in vivo; conditions: preventative foliar spray, tomato; for % Disease Area, Photon Imaging: chlorophyll fluorescence; for % Disease Area, Visual Scoring: scored by eye
[2] = system: Erysiphe graminis f sp. hordei; test: Preventative control of powdery mildew on barley, % disease area by visual scoring and by photon imaging (fluorescein diacetate fluorescence); format: in vivo; conditions: preventative foliar spray; for % Disease Area, Photon Imaging: FDA fluorescence; for % Disease Area, Visual Scoring: scored by eye
Method: Barley plants (Hordeum vulgari, cv. Boone) are cultivated either as single or multiple plants per plant growth unit, typically in a 2.54 cm by 2.54 cm pot of soil. Plants are grown in an environmentally regulated growth chamber at 20° C. and 70% humidity. The plants are approximately 7 days old at the time of application of the plant treatment agent. Single plant units are sprayed with fungicide standards or experimental plant treatment agents to the point of run-off.
Twenty-four hours following application of the plant treatment agent the barley plants are subsequently inoculated with spores of a fungal plant pathogen and incubated under the appropriate conditions for a period sufficient to allow the development of visible disease symptoms.
Inoculation with powdery mildew is with a spore suspension of Erysiphe graminis f. sp. hoerdei, (the causal agent of barley powdery mildew). Powdery mildew-inoculated plants are placed in a dry area for 4 hours following inoculation and are subsequently grown for an additional seven days at 20° C. and 65% humidity. Powdery mildew-infected plants are 15 days old at the time of rating of disease.
For the determination of the % disease area for a sample, a binary image is generated which defined the area of pixels associated with a LGM for each object in the field of view. The percent disease area is calculated by dividing the pixel number for the LGM area by the pixel number for the sample area. For the detection of a LGM endogenous to the plant substrate, an additional step of subtracting the fluorescence area from the total leaf area and then dividing by the total leaf area is required for the percent disease area calculation.
The effectiveness of a plant treatment agent on plants infected with a disease organism is determined by treating the test unit with a pro-LGM and detecting photon emission. Barley plants cultivated as described above are given 125 μL spray applications of a preventative treatment containing 40, 5, 1, 0.4 and 0.2 ppm flusilazole. The plant treatment agent is formulated by resuspending the appropriate amount of the dried compound in 6 μL of DMSO with shaking overnight, followed by the subsequent addition of 570 μL of a 50/50 Acetone/Water-Trem solution, yielding the desired final concentration. The Water-Trem contains 18 drops of the Trem® 014 surfactant (Henkel Corp, Amber, Pa.) per L of water. The formulated plant treatment agent is applied as a foliar spray application. In this example, a microsprayer apparatus (U.S. Patent Application No. 60/172,928) applying a fine aerosol mist from the tip of an ultrasonic nebulizer, with air assist, to a rotating electrostatically charged perpendicular plant target is employed.
Twenty-four hours following application of the plant treatment agent the barley plants are subsequently inoculated with a suspension of powdery mildew (Erysiphe graminis f sp. hordei) spores, and incubated under the appropriate conditions for a period sufficient to allow the development of visible disease symptoms, as described above. Untreated plants are also infected at this time for the production of untreated, infected controls. Untreated, uninfected control plants are also generated in parallel.
Plants to be rated for fungicide activity are first scored visually by eye for % disease coverage. The same samples are subsequently treated with the pro-LGM fluorescein diacetate. The FDA is formulated in a stock solution at 1 mg FDA/mL acetone. A final working solution is formulated which contains 5 μg/mL fluorescein diacetate and 0.005% Trem® 014. The FDA working solution is applied by spraying the sample using a Preval® sprayer (Precision Valve Corporation, Yonkers, N.Y.) with sufficient solution to wet all surfaces. Care must be taken not to allow access of FDA to leaves with cuts or abraded surfaces. […]

[3] = system: Magnaportha grisea; conditions: 5 ppm, systemic application to media prior to seeding, Eragrostis curvula, M. grisea strain expressing a FP

Question: How did the “% Disease Area, Photon Imaging” value ([1]; 1 ppm) turn out when COCC(=O)N(c1c(C)cccc1C)C(C)C(=O)OC (centres unmarked) [Ridomil] was run?
Answer: 60%

Question: What about the “% Disease Area, Visual Scoring” value ([1]; 1 ppm) of the same compound?
Answer: 53%

Question: What about the “% Disease Area, Photon Imaging” value ([1]; 5 ppm) of the same compound?
Answer: 10%

Question: What about the “% Disease Area, Visual Scoring” value ([1]; 5 ppm) of the same compound?
Answer: 24%

Question: And the “% Disease Area, Photon Imaging” value ([1]; 20 ppm)?
Answer: 2%

Question: What about the “% Disease Area, Visual Scoring” value ([1]; 20 ppm) of the same compound?
Answer: 3%

Question: Which results are given for C[Si](Cn1cncn1)(c1ccc(F)cc1)c1ccc(F)cc1 [flusilazole]?
Answer: % Disease Area, Photon Imaging ([2]; 0.2 ppm): 64%; % Disease Area, Visual Scoring ([2]; 0.2 ppm): 52%; % Disease Area, Photon Imaging ([2]; 0.4 ppm): 27%; % Disease Area, Visual Scoring ([2]; 0.4 ppm): 19%; % Disease Area, Photon Imaging ([2]; 1 ppm): 24%; % Disease Area, Visual Scoring ([2]; 1 ppm): 7%; % Disease Area, Photon Imaging ([2]; 5 ppm): 13%; % Disease Area, Visual Scoring ([2]; 5 ppm): 1%; % Disease Area, Photon Imaging ([2]; 40 ppm): 0%; % Disease Area, Visual Scoring ([2]; 40 ppm): 0%

Question: Cc1cccc2sc3nncn3c12 [tricyclazole] was tested. Which “FP fluorescence relative to untreated, inoculated control” value [3] did it give?
Answer: reduced fluorescence
